# Results as given in patent publication US20250270221A1, “SOLID FORMS OF JAK INHIBITOR AND PROCESS OF PREPARING THE SAME” (Incyte Corporation, priority 2022, published 2025).
# Assay: Dynamic vapor sorption (DVS Intrinsic, Method D, not dried)
# Format: physicochemical
# Parameters: Hysteresis: unit not given here
# Experimental: The samples were not dried prior to analysis. Sorption and desorption data were collected from 5% to 95% RH in 10% RH increments under a nitrogen purge. The equilibrium criteria used for the analyses were 0.001 dm/dt weight change in 5 minutes with a minimum step time of 30 minutes and maximum equilibration time of 180 minutes with a 3 minute data logging interval. Data were not corrected for the initial moisture content of the sample.
# [1] = Target RH 95.0%, sample RH 95.8%
structure (smiles),measurement,setting,value
"N#CC[C@H](C1CCCC1)n1cc(-c2ncnc3[nH]ccc23)cn1 [Form I, (R)-3-(4-(7H-pyrrolo[2,3-d]pyrimidin-4-yl)-1H-pyrazol-1-yl)-3-cyclopentylpropanenitrile]",Hygroscopicity,DVS Method D,hygroscopic
same,Desorp Mass Change,"Target RH 5.0%, sample RH 5.1%",5.04%
same,Sorp Mass Change,"Target RH 5.0%, sample RH 5.4%",0.00%
same,Hysteresis,Target RH 15.0%,9.78
same,Sorp Mass Change,"Target RH 15.0%, sample RH 15.6%",0.06%
same,Desorp Mass Change,"Target RH 15.0%, sample RH 16.1%",9.84%
same,Hysteresis,Target RH 25.0%,9.94
same,Sorp Mass Change,"Target RH 25.0%, sample RH 25.4%",0.11%
same,Desorp Mass Change,"Target RH 25.0%, sample RH 25.9%",10.05%
same,Hysteresis,Target RH 35.0%,10.06
same,Sorp Mass Change,"Target RH 35.0%, sample RH 35.4%",0.15%
same,Desorp Mass Change,"Target RH 35.0%, sample RH 36.0%",10.21%
same,Hysteresis,Target RH 45.0%,10.16
same,Sorp Mass Change,"Target RH 45.0%, sample RH 45.5%",0.19%
same,Desorp Mass Change,"Target RH 45.0%, sample RH 46.1%",10.35%
same,Hysteresis,Target RH 55.0%,10.21
same,Sorp Mass Change,"Target RH 55.0%, sample RH 55.3%",0.26%
same,Desorp Mass Change,"Target RH 55.0%, sample RH 56.1%",10.47%
same,Hysteresis,Target RH 65.0%,4.28
same,Sorp Mass Change,"Target RH 65.0%, sample RH 65.5%",6.30%
same,Desorp Mass Change,"Target RH 65.0%, sample RH 66.2%",10.58%
same,Hysteresis,Target RH 75.0%,3.65
same,Sorp Mass Change,"Target RH 75.0%, sample RH 75.3%",7.04%
same,Desorp Mass Change,"Target RH 75.0%, sample RH 76.3%",10.68%
same,Hysteresis,Target RH 85.0%,0.79
same,Sorp Mass Change,"Target RH 85.0%, sample RH 86.1%",10.00%
same,Desorp Mass Change,"Target RH 85.0%, sample RH 89.4%",10.79%
same,Desorp Mass Change,[1],10.83%
same,Sorp Mass Change,[1],10.83%
same,Additional weight loss,desorption from 15 to 5% RH,4.8%
same,Weight loss,desorption from 95 to 15% RH,1%
same,Weight gain,from 5 to 55% RH,0.26%
same,Weight gain,from 55 to 95% RH,10.6%
same,Solid form of post DVS sample,less crystalline than the starting material,Form I
